Patent US20150374709A1, “TETRA-SUBSTITUTED NDGA DERIVATIVES VIA ETHER BONDS AND CARBAMATE BONDS AND THEIR SYNTHESIS AND PHARMACEUTICAL USE” (ERIMOS PHARMACEUTICALS LLC, priority 2006, published 2015)

Assays:
Assay type in all cases: cell-based
Colon Cancer cell lines = test: NCI DTP human tumor cell line screen, colon cancer panel; details: Colon Cancer (7 cell lines)
Description: (§1) The United States National Cancer Institute (NCI) provides a developmental therapeutics program (DTP) (http://dtp.nci.nih.gov/branches/btb/ivelsp.html) to screen submitted substances in support of cancer drug discovery. The In Vitro Cell Line Screening Project (IVCLSP) is a dedicated service providing direct support to the DTP anticancer drug discovery program and is designed to screen up to 3,000 compounds per year for potential anticancer activity. The operation of this screen utilizes 60 different human tumor cell lines, representing leukemia, melanoma and cancers of the lung, colon, brain, ovary, breast, prostate, and kidney. The aim is to prioritize for farther evaluation, synthetic compounds or natural product samples showing selective growth inhibition or cell killing of particular tumor cell lines. This screen is unique in that the complexity of a 60 cell line dose response produced by a given compound results in a biological response pattern which can be utilized in pattern recognition algorithms (COMPARE program. See: http://dtp.nci.nih.gov/docs/compare/compare.html). Using these algorithms, it is possible to assign a putative mechanism of action to a test compound, or to determine that the response pattern is unique and not similar to that of any of the standard prototype compounds included in the NCI database. […]

[1] = system: HeLa (cervical adenocarcinoma); test: MTS cell viability assay, HeLa; details: Homo sapiens, HeLa, MTS assay; read-out: HeLa IC50
Description: (§2) Studies performed regarding cytotoxicity included the well-known MTS, Trypan Blue and MTT protocols. The MTS studies were done using the CellTiter 96®AQueous One Solution Cell Proliferation Assay (Promega Corporation, Madison, Wis. USA). Metabolically active, namely viable, cells turn MTS, a tetrazolium compound (3-(4,5-dimethylthiazol-2-yl)-5-(3-carboxymethoxyphenyl)-2-(4-sulfophenyl)-2H-tetrazolium, inner salt) into colored formazan, which is soluble in tissue culture medium. The measurement of the absorbance of the formazan is read at 490 nm. The ready to use reagent is added directly to the cells in media in 96-well plates, incubated 1-4 hours and the results are recorded by the plate reader. The IC50 is estimated by graphing the gathered data. The IC50 is the concentration of the tested material that inhibits 50% of growth or viability of the tested material compared to a control.
(§3) Three cell lines obtained from ATCC and maintained as directed by ATCC were tested: HeLa (cervical adenocarcinoma), A549 (lung carcinoma), and COS-7 (SV40 transformed monkey kidney). Studies of these cell lines are considered to be indicative of the effect of tested substances on mammalian, including human, diseases.
(§4) All compounds were dissolved in DMSO and DMSO is used as the placebo. The samples were first dissolved into 10 mM dilutions in DMSO and then diluted further to 5, 1, 0.5, 0.1, 0.05, and 0.01 mM solutions. These solutions were added to the media at a 1% concentration (1 μl to 100 μl media) to treat the cells with 100, 50, 10, 5, 1, 0.5, and 0.1 μM of the compound. […] Solutions were checked before use for precipitation, especially the 10 mM solutions. If there was precipitation, they were warmed 65° C. and added to warmed media.
(§5) Wells on a 96-well plate were seeded with 1.5-8×10^4 cells in 100 μl media and incubated overnight. The outside wells of the plate were filled with 200 μl sterile, deionized (DI) water to curb media evaporation. After 24 hours, test chemicals were prepared in media at a concentration of 1% media volume. The test sample media were added, mixing with pipette before adding 100 μl per well. Media was added to the “Media Only” wells. The well plate and its contents were incubated for 24-72 hours, depending on the study conducted. On the thy of the MTS assay, the MTS reagent was removed from the refrigerator and brought to room temperature. Using the multichannel pipette, 20 μl of the MTS reagent was added to each well and incubated for one to four hours. The plate was read at 490 nm with a reference wavelength of 690 nm after one hour in the incubator thereafter until the blank wells were at about 0.2 OD. The results were then scanned into a Microsoft® Excel® template designed to perform all necessary calculations whim data are entered. The data were checked for statistical errors; data points that are within 10% of the mean of the data points for that group were included. The average of the blanks (“Media Only”) were subtracted and the data were inserted into a chart that represents growth response, treated/untreated.

Leukemia cell lines = test: NCI DTP human tumor cell line screen, leukemia panel; details: Leukemia (6 cell lines)
Description: as §1

A549 (lung carcinoma) = test: MTS cell viability assay, A549; details: Homo sapiens, A549; MTS assay; read-out: A549 IC50
Description: as §2, §3, §4, §5

Melanoma cell lines = test: NCI DTP human tumor cell line screen, melanoma panel; details: Melanoma (8 cell lines)
Description: as §1

CNS cell lines = test: NCI DTP human tumor cell line screen, CNS panel; details: CNS (6 cell lines)
Description: as §1

## C[C@H](Cc1ccc(OCCCN2CCCCC2)c(OCCCN2CCCCC2)c1)[C@@H](C)Cc1ccc(OCCCN2CCCCC2)c(OCCCN2CCCCC2)c1 [Compound A, 1,4-bis{3,4-bis[3-(piperidin-1-yl)propoxy]phenyl}-2,3-dimethyl-(2R,3S)-butane]
Colon Cancer cell lines
  Mean Growth Percent at 10 μM: −94.08%
[1]
  IC50: 2000 to 3000 nM
Leukemia cell lines
  Mean Growth Percent at 10 μM: −81.93%
A549 (lung carcinoma)
  IC50: 800 to 900 nM
Melanoma cell lines
  Mean Growth Percent at 10 μM: −92.38%
CNS cell lines
  Mean Growth Percent at 10 μM: −93.97%
